Results as given in the supplement of paper PMC10331698.
± gives the standard deviation of the averaged measurements.

How the values were obtained:
Assay in all cases: level (log10 ratio to DMSO vehicle control); higher = higher biomarker level / cell amount than vehicle control
Conditions in all cases: in DMSO
[1] = compound: CC(C)(C)C(=O)CC(=O)C(F)(F)C(F)(F)C(F)(F)F [(Heptafluorobutanoyl)pivaloylmethane]
Experimental: (§1)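 BioMAP Diversity Plus panel of 12 human primary cell co-culture systems (3C, 4H, LPS, SAg, BT, BF4T, BE3C, CASM3C, HDF3CGF, KF3CT, MyoF, Mphg). Compounds were added 1 h before stimulation and left for 24 h (MyoF 48 h; BT 72 h for soluble read-outs or 6 d for IgG). Biomarkers were read by ELISA, cytotoxicity by SRB, PBMC viability and proliferation by Alamar Blue. Each well value was divided by the mean of 8 DMSO control wells on the same plate and log10 transformed; duplicate blinded samples were tested at 4 concentrations.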

[2] = compound: FC(F)(F)C(F)(F)C(F)(F)C(F)(F)C(F)(F)C(F)(F)C(F)(F)CCI [1-Iodo-1H,1H,2H,2H-perfluorononane]
Experimental: as §1

[3] = compound: NC(=O)C(F)(F)C(F)(F)C(F)(F)C(F)(F)C(F)(F)C(F)(F)C(F)(F)F [Perfluorooctanamide]
Experimental: as §1

[4] = compound: O=C(O)C(F)(F)C(F)(F)C(F)(F)C(F)(F)C(F)(F)C(F)(F)C(F)(F)C(F)(F)C(F)(F)C(F)(F)C(F)(F)C(F)(F)C(F)(F)F [Perfluorotetradecanoic acid]
Experimental: as §1

[5] = compound: O=C(O)CCC(F)(F)C(F)(F)C(F)(F)C(F)(F)C(F)(F)F [2H,2H,3H,3H-Perfluorooctanoic acid]
Experimental: as §1

[6] = compound: O=S(=O)(O)C(F)(F)C(F)(F)C(F)(F)C(F)(F)F [Perfluorobutanesulfonic acid]
Experimental: as §1

[7] = compound: OCC(F)(F)C(F)(F)C(F)(F)F [1H,1H-Heptafluorobutanol]
Experimental: as §1

Test System | level (log10) ([1]; 6700 nM) | level (log10) ([1]; 20000 nM) | level (log10) ([1]; 60000 nM) | level (log10) ([2]; 6700 nM) | level (log10) ([2]; 20000 nM) | level (log10) ([3]; 6700 nM) | level (log10) ([3]; 20000 nM) | level (log10) ([3]; 60000 nM) | level (log10) ([4]; 6700 nM) | level (log10) ([4]; 20000 nM) | level (log10) ([5]; 6700 nM) | level (log10) ([5]; 20000 nM) | level (log10) ([5]; 60000 nM) | level (log10) ([6]; 6700 nM) | level (log10) ([6]; 20000 nM) | level (log10) ([6]; 60000 nM) | level (log10) ([7]; 6700 nM) | level (log10) ([7]; 20000 nM) | level (log10) ([7]; 60000 nM)
3C:CCL2/MCP-1 | -0.0035 ± 0.0021 | -0.007 ± 0.018 | 0.0015 ± 0.043 | -0.005 | 0.019 ± 0.011 | 0.0085 ± 0.028 | -0.01 ± 0.0014 | 0.0105 ± 0.054 | 0.0125 ± 0.012 | 0.0085 ± 0.018 | 0.0045 ± 0.015 | 0.006 ± 0.034 | 0.01 ± 0.016 | 0.0025 ± 0.05 | 0.0015 ± 0.021 | 0.0355 ± 0.043 | -0.001 | -0.0055 ± 0.012 | 0.007 ± 0.028
3C:CD54/ICAM-1 | -0.0015 ± 0.019 | -0.0095 ± 0.005 | 0.03 ± 0.011 | -0.0115 ± 0.00071 | 0.0025 ± 0.016 | -0.012 ± 0.011 | -0.003 ± 0.013 | 0.0335 ± 0.012 | -0.0005 ± 0.0078 | -0.0045 ± 0.013 | 0.0005 ± 0.0064 | -0.0055 ± 0.018 | -0.0175 ± 0.022 | -0.008 ± 0.0014 | 0.0035 ± 0.0021 | 0.0015 ± 0.0021 | 0.0095 ± 0.0064 | 0.003 ± 0.0085 | 0.0075 ± 0.0064
3C:CD62E/E-Selectin | -0.0155 ± 0.0092 | -0.022 ± 0.0099 | -0.003 ± 0.017 | -0.0135 ± 0.0035 | -0.028 ± 0.014 | -0.009 ± 0.013 | -0.0115 ± 0.0078 | 0.004 ± 0.025 | -0.0245 ± 0.029 | -0.0105 ± 0.00071 | -0.01 ± 0.038 | -0.015 ± 0.058 | 0.006 ± 0.033 | -0.0165 ± 0.022 | -0.008 ± 0.021 | 0.0045 ± 0.021 | -0.006 ± 0.0028 | -0.0025 ± 0.0035 | 0.015 ± 0.016
3C:CD106/VCAM-1 | 0.0015 ± 0.00071 | -0.0045 ± 0.026 | 0.019 ± 0.018 | -0.015 ± 0.014 | -0.0115 ± 0.0021 | -0.023 ± 0.0028 | -0.005 ± 0.0099 | -0.004 ± 0.0057 | -0.014 ± 0.016 | -0.0155 ± 0.0078 | -0.021 ± 0.0057 | -0.0295 ± 0.026 | -0.025 ± 0.023 | -0.0215 ± 0.015 | -0.016 ± 0.025 | -0.006 ± 0.013 | 0.008 ± 0.033 | 0.018 ± 0.025 | 0.001 ± 0.037
3C:CD141/Thrombomodulin | -0.0095 ± 0.015 | 0.024 ± 0.011 | 0.187 ± 0.014 | -0.028 ± 0.0014 | -0.01 ± 0.041 | -0.006 ± 0.02 | -0.0115 ± 0.022 | -0.0185 ± 0.039 | -0.0165 ± 0.036 | -0.024 ± 0.042 | -0.032 ± 0.078 | -0.0295 ± 0.022 | -0.0405 ± 0.029 | -0.0185 ± 0.049 | -0.019 ± 0.0085 | -0.054 ± 0.0085 | -0.0025 ± 0.018 | -0.005 ± 0.0042 | 0.0195 ± 0.005
3C:CD142/Tissue Factor | -0.0205 ± 0.015 | -0.0235 ± 0.005 | -0.053 ± 0.014 | 0.01 ± 0.0071 | 0.0065 ± 0.0078 | 0.029 ± 0.033 | 0.009 ± 0.013 | 0.0245 ± 0.06 | 0.0275 ± 0.0078 | 0.0665 ± 0.018 | 0.009 ± 0.0028 | 0.018 ± 0.0071 | 0.022 ± 0.0085 | 0.003 ± 0.0028 | 0.001 ± 0.0071 | -0.005 ± 0.038 | -0.0065 ± 0.021 | 0.0105 ± 0.015 | 0.026 ± 0.025
BE3C:Keratin 8/18 | 0.009 ± 0.0014 | 0.009 ± 0.0057 | 0.001 ± 0.025 | -0.005 ± 0.017 | -0.007 ± 0.0085 | -0.001 ± 0.0085 | -0.009 ± 0.0028 | -0.0105 ± 0.0078 | -0.004 ± 0.03 | -0.011 ± 0.045 | 0.0065 ± 0.0021 | -0.015 ± 0.011 | -0.004 ± 0.0057 | 0.003 ± 0.0014 | -0.0035 ± 0.00071 | -0.0165 ± 0.0078 | -0.023 ± 0.041 | 0.0035 ± 0.019 | -0.009 ± 0.037
BE3C:MMP-1 | -0.0025 ± 0.0035 | -0.019 ± 0.013 | 0.0095 ± 0.033 | 0.011 ± 0.0071 | 0.059 ± 0.031 | 0.0075 ± 0.0078 | 0.014 ± 0.0071 | 0.022 ± 0.018 | 0.015 ± 0.025 | 0.0505 ± 0.059 | 0.019 ± 0.013 | 0.0225 ± 0.028 | 0.072 ± 0.048 | 0.0055 ± 0.028 | -0.011 ± 0.0057 | 0.019 ± 0.013 | 0.0035 ± 0.0078 | -0.015 ± 0.02 | 0.0025 ± 0.028
BE3C:MMP-9 | -0.0145 ± 0.018 | 0.004 ± 0.0014 | -0.032 ± 0.04 | -0.0045 ± 0.013 | -0.0045 ± 0.026 | -0.0085 ± 0.0064 | 0.002 ± 0.0028 | 0.0015 ± 0.013 | -0.033 ± 0.071 | -0.04 ± 0.065 | -0.0025 ± 0.025 | -0.003 ± 0.014 | 0.0195 ± 0.033 | -0.0125 ± 0.016 | -0.0205 ± 0.0035 | -0.0315 ± 0.0092 | 0.002 ± 0.0042 | 0.0015 ± 0.0064 | 0.0175 ± 0.033
BE3C:PAI-I | -0.028 ± 0.068 | -0.009 ± 0.083 | -0.0145 ± 0.1 | 0.016 ± 0.0071 | -0.01 ± 0.0099 | -0.01 ± 0.016 | 0.016 ± 0.0085 | 0.022 ± 0.0057 | 0.007 ± 0.058 | -0.0175 ± 0.064 | -0.0035 ± 0.0064 | 0.027 ± 0.011 | 0.044 ± 0.0057 | -0.0015 ± 0.0035 | -0.006 ± 0.013 | 0.008 ± 0.013 | -0.0285 ± 0.0078 | -0.0185 ± 0.03 | -0.0115 ± 0.0035
BE3C:SRB | -0.0035 ± 0.0035 | -0.0035 ± 0.00071 | -0.0075 ± 0.019 | -0.0035 ± 0.0021 | 0.0005 ± 0.00071 | -0.005 ± 0.0057 | -0.003 ± 0.0057 | 0.0005 ± 0.0035 | -0.005 ± 0.0057 | 0.0035 ± 0.012 | 0.003 ± 0.0028 | -0.0015 ± 0.005 | 0.012 ± 0.018 | 0.001 | -0.004 ± 0.0028 | -0.003 ± 0.0014 | -0.0115 ± 0.0078 | -0.0045 ± 0.011 | -0.0005 ± 0.0064
BE3C:tPA | -0.026 ± 0.0071 | -0.0035 ± 0.025 | -0.0275 ± 0.032 | 0.004 ± 0.035 | 0.011 ± 0.035 | 0.008 ± 0.018 | 0.0385 ± 0.011 | 0.049 ± 0.05 | 0.04 ± 0.075 | 0.0035 ± 0.06 | -0.0005 ± 0.005 | -0.0035 ± 0.013 | 0.0265 ± 0.013 | 0.0155 ± 0.022 | -0.0135 ± 0.0078 | 0 ± 0.025 | -0.019 ± 0.021 | -0.0125 ± 0.061 | 0.0005 ± 0.005
BE3C:uPA | 0.0025 ± 0.018 | -0.0035 ± 0.023 | 0.002 ± 0.03 | 0.003 ± 0.033 | -0.0125 ± 0.015 | 0.0025 ± 0.0035 | 0.0005 ± 0.005 | 0.0135 ± 0.0021 | -0.0075 ± 0.05 | -0.0085 ± 0.056 | 0.0025 ± 0.011 | -0.009 ± 0.0085 | 0.0025 ± 0.005 | -0.0035 ± 0.0021 | -0.007 ± 0.0042 | -0.005 ± 0.0099 | -0.0035 ± 0.005 | 0.015 ± 0.011 | 0.002 ± 0.0028
CASM3C:CCL2/MCP-1 | -0.008 ± 0.017 | -0.0025 ± 0.021 | -0.0075 ± 0.0092 | 0.003 ± 0.0099 | 0.02 ± 0.018 | -0.013 ± 0.03 | -0.013 ± 0.014 | -0.014 ± 0.0099 | -0.0615 ± 0.036 | -0.03 ± 0.021 | -0.002 ± 0.014 | 0.002 ± 0.0042 | 0.013 ± 0.028 | -0.0085 ± 0.0092 | -0.0125 ± 0.035 | -0.0045 ± 0.021 | 0.006 ± 0.0099 | 0.006 ± 0.0057 | 0.0095 ± 0.026
CASM3C:CD87/uPAR | 0.003 ± 0.02 | -0.0235 ± 0.0064 | -0.014 ± 0.023 | -0.0105 ± 0.028 | -0.013 ± 0.028 | -0.009 ± 0.0014 | -0.001 ± 0.024 | 0.0045 ± 0.0092 | -0.0305 ± 0.057 | -0.0375 ± 0.026 | -0.008 ± 0.013 | -0.011 ± 0.0071 | -0.0305 ± 0.0092 | -0.0275 ± 0.03 | -0.047 ± 0.045 | -0.0575 ± 0.0092 | -0.0045 ± 0.026 | -0.013 ± 0.016 | 0.015 ± 0.011
